Type in all cases: physicochemical
The nature of series [1]: Average particle diameter by sieving. On the procedure: Using the GILSONIC AUTOSIEVER (GA-6, manufactured by GILSON), an about 2 g coarsely milled sample (pass through 425μ mesh) was sieved for 5 minutes and the resulting particles were classified by size; the average particle diameter was calculated from the weights of particles in respective classes.
(§1) The milled products of the crystals obtained in Examples 1-3 and the powder obtained in Comparative Example 2 were examined for dusting (scattering) and water solubility and dispersibility. Also, these powders were sieved and their average particle diameters were determined.

The nature of series [2]: Water solubility: time taken to dissolve powder in water. To be noted: second Ex. 1 powder, average particle size 20 μm; 1.5 g in 100 g of water at 30° C. On the procedure: as §1
In this test, solubility is defined as time taken to dissolve 1.5 g of powder in 100 g of water at 30° C.

Series [3] is described as follows: Scattering (dusting) test of dropped powder. To be noted: second Ex. 1 powder, average particle size 20 μm; relative ratio to Comparative Example 2. How it is done: as §1
Scattering was quantified as described below. A 5 g powder sample was dropped by a distance of 1.2 m from the top of a cylinder (diameter: 12.5 cm). Two seconds after the drop, the scattered powder was sucked from the inlet in the base of the cylinder for 6 seconds using a blower; the powder caught by filter paper (GB100R, manufactured by Advantest Corporation) on the blower surface was weighed. This weight was expressed as a relative ratio to the powder weight in Comparative Example 2.

Series [4] in a line: Water dispersibility (lumping) evaluated by five panelists. To be noted: second Ex. 1 powder, average particle size 20 μm. On the procedure: as §1
Dispersibility was evaluated by five panelists. A 1-gram powder sample was placed in the palm of each panelist and rubbed and examined for lumping in the presence of a small amount of water. Findings were evaluated using a three-grade rating system: good (O) for no lumping, acceptable (Δ) for a small amount of lumping, and poor (x) for a large amount of lumping.

[5] abbreviates: milled product of crystal (Com. Ex. 2: spray-dried powder), sieved.

In series [1] (setting [5]), `CCCCCCCCCCCCCC(=O)NCC(=O)[O-].[Na+]` [Ex. 3, N-myristoylglycine Sodium Salt] yielded an Average particle size of 87 μm.

Regarding `CCCCCCCCCCCC(=O)NCC(=O)[O-].[Na+]` [Ex. 1, N-lauroylglycine Sodium Salt], in series [2], the Dissolution rate came out at 341 s. In addition, the values for the Average particle size in series [1] (setting [5]) and in series [1] (second Ex. 1 powder (finer)) were 85 μm and 20 μm, respectively. Further, the Scattering in series [3] is on record as 0.87. In addition, the Dispersibility entry in series [4] is “◯”.
